Data from ChEMBL document CHEMBL5126562, “Surprising lipophilicity observations identify unexpected conformational effects” (Bioorg Med Chem Lett, 2022).
≈ marks a conversion by molar mass, not a printed value.

Legend:
[1] = Lipophilicity, logD of compound at pH 7.4; format: physicochemical; conditions: buffer
[2] = Solubility of compound at pH 7.4; format: physicochemical; conditions: buffer

CS(=O)(=O)c1ccc(CNC(=O)C2CCCN(c3cccc(C(F)(F)F)c3)C2=O)cc1 (stereo unspecified)
logD [1]: 1.5
solubility [2]: 94 µM (≈ 42.7 µg/mL)

CN1CCCN(c2cnc(NCc3c(F)ccc4c3CCO4)n3cnnc23)C1=O
logD [1]: 1.2
solubility [2]: 153 µM (≈ 60.8 µg/mL)

O=C([C@@H]1C[C@H]1c1cccc(N2CCCCC2=O)c1)N1CCN(C2CCC2)CC1
logD [1]: 1.6
solubility [2]: > 3000 µM

O=C1CCCN1c1cnc(NCc2c(F)ccc3c2CCO3)c2cn[nH]c(=O)c12
logD [1]: 1.8

CC(=O)N1CCc2cc(-c3cccc4c3CCCC4)cc(N3CCCC3=O)c21
logD [1]: 3.5
solubility [2]: 271 µM (≈ 101 µg/mL)

O=C(C1CC1c1ccc(N2CCCC2=O)cc1)N1CCN(C2CCC2)CC1 (stereo unspecified)
logD [1]: 2
solubility [2]: > 2680 µM

Cc1nc(Nc2cccc(N3CCOC3=O)n2)sc1-c1cc2c(c(S(=O)(=O)NC3COC3)c1)C(=O)N([C@@H](C)C1CC1)C2
logD [1]: > 4
solubility [2]: 0.021 µM (≈ 0.0128 µg/mL)

COCC(=O)N1CCC(COc2ccc(N3CCCCC3=O)cc2)C1 (stereo unspecified)
logD [1]: -0.1
solubility [2]: > 3970 µM

O=C1CCCN1c1cnc(NCc2c(F)ccc3c2CCO3)n2cnnc12
logD [1]: 1.3

Cc1nc(Nc2cccc(N3CCCCC3=O)n2)sc1-c1cc2c(c(S(=O)(=O)NC3COC3)c1)C(=O)N([C@@H](C)C1CC1)C2
logD [1]: 3.6
solubility [2]: 1.8 µM (≈ 1.12 µg/mL)

Cc1nc(Nc2cccc(N3CCCCC3=O)n2)sc1-c1cc2c(c(S(C)(=O)=O)c1)C(=O)N([C@@H](C)C1CC1)C2
logD [1]: 3.9
solubility [2]: 6.3 µM (≈ 3.56 µg/mL)

C[C@]1(CS(=O)(=O)N2CC=C(C#Cc3cccc(N4CCCC4=O)c3)CC2)NC(=O)NC1=O
logD [1]: 1.5
solubility [2]: 94 µM (≈ 42.9 µg/mL)

CN1CCN(c2ccc(F)cc2CN2CCN(c3ccc(N4CCOCC4)cc3)C2=O)CC1
logD [1]: 2.1
solubility [2]: 189 µM (≈ 85.7 µg/mL)

CN1CCN(c2ccc(F)cc2CN2CCCN(c3ccc(N4CCOCC4)cc3)C2=O)CC1
logD [1]: 1.6
solubility [2]: 387 µM (≈ 181 µg/mL)

Cc1nc(Nc2cccc(N3CCN(C)C3=O)n2)sc1-c1cc2c(c(S(C)(=O)=O)c1)C(=O)N([C@@H](C)C1CC1)C2
logD [1]: 3.4
solubility [2]: < 0.045 µM

C[C@]1(CS(=O)(=O)N2CC=C(C#Cc3cccc(N4CCCCC4=O)c3)CC2)NC(=O)NC1=O
logD [1]: 1
solubility [2]: 89 µM (≈ 41.9 µg/mL)

Cc1nc(Nc2cccc(N3CCCC3=O)n2)sc1-c1cc2c(c(S(=O)(=O)NC3COC3)c1)C(=O)N([C@@H](C)C(F)(F)F)C2
logD [1]: > 4
solubility [2]: 0.081 µM (≈ 0.0516 µg/mL)

O=C1CCCN1c1cccc(C(=O)N(c2ncccc2Cl)[C@@H]2CCCNC2)c1
logD [1]: -0.5
solubility [2]: 67 µM (≈ 26.7 µg/mL)

Cc1nc(Nc2cccc(N3CCCCC3=O)n2)sc1-c1cc2c(c(S(=O)(=O)NC3COC3)c1)C(=O)N([C@@H](C)C(F)(F)F)C2
logD [1]: 3.8
solubility [2]: 3 µM (≈ 1.95 µg/mL)

Cc1nc(Nc2cccc(N3CCCC3=O)n2)sc1-c1cc2c(c(S(C)(=O)=O)c1)C(=O)N([C@@H](C)C1CC1)C2 [AZD-8154]
logD [1]: 4.4
solubility [2]: 0.054 µM (≈ 0.0298 µg/mL)

COc1ccc(N2CCN(C)CC2)c(CN2CCCN(c3ccc(N4CCOCC4)cc3)C2=O)c1
logD [1]: 1.3
solubility [2]: 404 µM (≈ 194 µg/mL)

CS(=O)(=O)c1ccc(CNC(=O)C2CCN(c3cccc(C(F)(F)F)c3)C2=O)cc1 (stereo unspecified)
logD [1]: 2.1
solubility [2]: 15 µM (≈ 6.61 µg/mL)

N#Cc1cccc2ncn(CC(=O)NCc3ccc(C(F)(F)F)nc3N3CCCCC3=O)c12
logD [1]: 1.8
solubility [2]: > 200 µM

O=C1CCCCN1c1cccc(C(=O)N(c2ncccc2Cl)[C@@H]2CCCNC2)c1
logD [1]: -0.9
solubility [2]: > 973 µM

COc1ccc(N2CCN(C)CC2)c(CN2CCN(c3ccc(N4CCOCC4)cc3)C2=O)c1
logD [1]: 1.8
solubility [2]: 456 µM (≈ 212 µg/mL)

O=C1CCCCN1c1cnc(NCc2c(F)ccc3c2CCO3)n2cnnc12
logD [1]: 1.3
solubility [2]: 351 µM (≈ 134 µg/mL)

CC(=O)N1CCc2cc(-c3cccc4c3CCCC4)cc(N3CCCCC3=O)c21
logD [1]: 3.8
solubility [2]: 259 µM (≈ 101 µg/mL)

O=C([C@@H]1C[C@H]1c1cccc(N2CCCC2=O)c1)N1CCN(C2CCC2)CC1
logD [1]: 2
solubility [2]: > 4140 µM

O=C1CCCCN1c1cnc(NCc2c(F)ccc3c2CCO3)c2cn[nH]c(=O)c12
logD [1]: 1.9
solubility [2]: 18 µM (≈ 7.37 µg/mL)

N#Cc1cccc2ncn(CC(=O)NCc3ccc(C(F)(F)F)nc3N3CCCC3=O)c12
logD [1]: 1.8
solubility [2]: > 2400 µM

O=C([C@H]1C[C@@H]1c1cccc(N2CCCCC2=O)c1)N1CCN(C2CCC2)CC1
logD [1]: 1.7
solubility [2]: 2190 µM (≈ 837 µg/mL)

Cc1nc(Nc2cccc(N3CCCN(C)C3=O)n2)sc1-c1cc2c(c(S(C)(=O)=O)c1)C(=O)N([C@@H](C)C1CC1)C2
logD [1]: 3.5
solubility [2]: < 0.14 µM

COCC(=O)N1CCC(COc2ccc(N3CCCC3=O)cc2)C1 (stereo unspecified)
logD [1]: 0.2
solubility [2]: 271 µM (≈ 90.1 µg/mL)

CN1CCN(c2cnc(NCc3c(F)ccc4c3CCO4)n3cnnc23)C1=O
logD [1]: 1.4
solubility [2]: 641 µM (≈ 246 µg/mL)
